According to US20160303181A1, “SYNERGISTIC COMBINATION OF ALANINE-GLUTAMINE, HYALURONIC ACID AND OAT EXTRACT AND THE USE THEREOF IN A COMPOSITION INTENDED FOR HEALING WOUNDS AND REPAIRING SKIN LESIONS” (PIERRE FABRE DERMO-COSMETIQUE, priority 2013, published 2016):
Marks after values point to notes of the source that are not given here. Residues, ends and D or L forms follow the SMILES beside them.

Tested on: HaCaT human keratinocyte line
Assay: Migration of keratinocytes, Oris Cell Migration Assay
Type: cell-based
Conditions: DMEM 0% FCS, 24 hours; for effect on the migration of keratinocytes (in words): oat seedling extract 10 or 30 μg/ml, hyaluronate 20 or 60 μg/ml, L-alanyl-L-glutamine 40 or 90 μg/ml, EGF 33 ng/ml; for % Migration (percentage activity compared to the control 0% FCS): control = 100
Description: The objective of this test was to evaluate the effect of hyaluronic acid, oat seedling extract, L-alanyl-L-glutamine and combinations thereof on the migration of keratinocytes using the Oris Cell Migration Assay kit (Platypus Technologies).
The spontaneously immortalised HaCaT human keratinocyte line, frequently cited as reference model in the literature was used.
The protocol used for the study of cell migration is based on the use of a 96 well kit, the Oris Cell Migration Assay (Platypus technologies—TEBU), enabling the miniaturisation and the quantification of this cellular process.
The principle of this test consists in studying cell migration towards the centre of the wells of the 96 well plate. It consists in placing a stopper in the wells, in order to create a 2 mm diameter detection zone. Then removing the stoppers once cells have properly adhered to the surface around them, and thus to enable cells to migrate towards the detection zone. The plates without stoppers and with the active ingredients are incubated at 37° C. for 24 hours in DMEM (Dulbecco's Modified Eagle Medium) 0% FCS (foetal calf serum). The quantity of cells situated in the zone where the stopper was is analysed in order to evaluate the migration of the cells. A mask makes it possible to visualise and to count uniquely the cells situated in this zone. For each condition, the average is determined on 6 to 8 wells.
The cells were incubated in FCS-free medium.
• EGF: 33 ng/ml, • oat seedling extract: 10 or 30 μg/ml,
Filtering. Concentration by drying until a dry extract is obtained. • sodium hyaluronate (molecular weight 250-450 kDa): 20 or 60 μg/ml, • L-alanyl-L-glutamine: 40 or 90 μg/ml.
The Results are Expressed: • In fluorescence intensity (FI), proportional to the quantity of cells having migrated. • In percentage activity compared to the control 0% FCS.
Statistical analyses by the Dunnett test were carried out on the crude migration values. This test then gives “p value” values characterising the significance of the results obtained for different conditions. The degree of significance was fixed at […]

[1] = Table 1, lower concentrations: EGF 33 ng/ml, ES 10 μg/ml, AH 20 μg/ml, A-G 40 μg/ml, control 1850
[2] = Table 1, lower concentrations: EGF 33 ng/ml, ES 10 μg/ml, AH 20 μg/ml, A-G 40 μg/ml
[3] = Table 2, higher concentrations: EGF 33 ng/ml, ES 30 μg/ml, AH 60 μg/ml, A-G 90 μg/ml, control 1729 ± 384
[4] = Table 2, higher concentrations: EGF 33 ng/ml, ES 30 μg/ml, AH 60 μg/ml, A-G 90 μg/ml

Row | Compound | effect on the migration of keratinocytes (in words) | Average ± SD (fluorescence intensity, proportional to the quantity of cells having migrated) [1] | % Migration (percentage activity compared to the control 0% FCS) [2] | Average ± SD (fluorescence intensity, proportional to the quantity of cells having migrated) [3] | % Migration (percentage activity compared to the control 0% FCS) [4]
1 | C[C@H](N)C(=O)N[C@@H](CCC(N)=O)C(=O)O [A-G, L-alanyl-L-glutamine] (H-Ala-Gln-OH) | induces the migration of keratinocytes in a concentration-dependent manner | 2471 ± 788 | 200% | 2586 ± 1092 | 194%
2 | sodium hyaluronate [AH] | did not have any significant effect on the migration of keratinocytes | 1939 ± 438 | 114% | 1735 ± 488 | 101%
3 | EGF: positive control of the migration experiments, 33 ng/ml | induces the migration of keratinocytes | 2569± | 216% | 3553 ± 1556 | 301 * %
